Test results taken from US20220074941A1, “HSP90 COMBINATION THERAPY” (Sloan-Kettering Institute for Cancer Research, priority 2011, published 2022).
“Also recorded” adds a separate entry of the source.

Columns and labels:
[1] = tested on: patients with advanced pancreatic cancer; conditions: cited from earlier work
[2] = tested on: DLBCL cell lines; conditions: literature; cited from earlier work
[3] = tested on: OCI-LYI, OCI-LY7, Farage and SUDHL6 DLBCL cells; assay: Combination of PU-H71 with SYK inhibitor in DLBCL cells; type: cell-based
[4] = tested on: MDA-MB-468 breast cancer cells; assay: Clonogenic survival, combination with PU-H71; type: cell-based; conditions: MDA-MB-468, combination with PU-H71
From the text: (§1) Specifically, among the Hsp90-regulated pathways identified in the K562 CML cells, MDA-MB-468 breast cancer cells and the Mia-PaCa-2 pancreatic cancer cells are several involved in DNA damage, replication and repair response and/or homologous recombination (Tables 3, 5a-5f). Hsp90 inhibition may synergize or be additive with agents that act on DNA damage and/or homologous recombination (i.e. potentiate DNA damage sustained post treatment with IR/chemotherapy or other agents, such as PARP inhibitors that act on the proteins that are important for the repair of double-strand DNA breaks by the error-free homologous recombinational repair pathway).

[5] = tested on: HCC1937 breast cancer cells; assay: Clonogenic survival, combination with PU-H71; type: cell-based
From the text: as §1

[6] = tested on: K562 cells; assay: Alamar Blue cell growth assay; type: cell-based; conditions: K562, 72 h
Protocol: (§2) FIGS. 7a-7g. PU-H71 identified proteins and networks are those important for the malignant phenotype. (a) K562 cells were treated for 72 h with the indicated inhibitors and cell growth analyzed by the Alamar Blue assay. Data are presented as means±SD (n=3). (b) Sequential chemical-precipitations, as indicated, were conducted in K562 extracts with the PU-beads at the indicated frequency. Proteins in the pull-downs and in the remaining supernatant were analyzed by WB. (c) The effect of CARMI knock-down on cell viability using Tryptan blue (left) or Acridine orange/Ethidium bromide (right) stainings was evaluated in K562 cells. (d) The expression of select potential Hsp90-interacting proteins was analyzed by WB in K562 leukemia and Mia-PaCa-2 pancreatic cancer cells. […] Proteins in the pull-downs were analyzed by WB. (g) The effect of select inhibitors on Mia-PaCa-2 cell growth was analyzed as in panel (a).
(§3) Viability assessment in K562 cells untransfected or transfected with CARMI shRNA or scramble was performed using Trypan Blue. […] Apoptosis analysis was assessed using fluorescence microscopy by mixing 2 μL of acridine orange (100 μg/mL), 2 μL of ethidium bromide (100 μg/mL), and 20 μL of the cell suspension. A minimum of 200 cells was counted in at least five random fields. […] Results were analyzed using the Softmax Pro and the GraphPad Prism softwares. […]

[7] = tested on: Mia-PaCa-2 cells; assay: Alamar Blue cell growth assay; type: cell-based, human; conditions: Mia-PaCa-2, 72 h
Protocol: as §2, §3

[8] = tested on: K562 cells; assay: Western blot of proteins in treated K562 cells; type: cell-based; conditions: PU-H71 5 μM or Gleevec 0.5 μM, time course
Protocol: FIGS. 5a-5f. […] (a) Hsp90 complexes in K562 extracts were isolated by precipitation with H9010, a non-specific IgG, or by PU-H71- or Control-beads. Control beads contain ethanolamine, an Hsp90-inert molecule. Proteins in pull-downs were analyzed by Western blot. (b,c) Single or sequential immuno- and chemical-precipitations, as indicated, were conducted in K562 extracts with H9010 and PU-beads at the indicated frequency and in the shown sequence. Proteins in the pull-downs and in the remaining supernatant were analyzed by WB. NS=non-specific. […] (e) Expression of proteins in Hsp70-knocked-down cells was analyzed by Western blot (left) and changes in protein levels presented in relative luminescence units (RLU) (right). Control=scramble siRNA. […] Proteins in the pull-downs and in the remaining supernatant were analyzed by Western blot. […]
FIGS. 8a-8h. […] Proteins in the pull-downs and in the remaining supernatant were analyzed by WB. […] Proteins were analyzed by WB (upper), quantified by densitometry and graphed against treatment time (lower). […] (f) Quantitative chromatin immunoprecipitation assays (QChIP) performed with STAT5 or Hsp90 antibodies vs. IgG control for two known STAT5 target genes (CCND2 and […]).
Protein concentrations were determined using BCA kit (Pierce) according to the manufacturer's instructions. […]

[9] = tested on: Hsp90 from SKBr3 cellular extracts; assay: Fluorescence polarization (FP) competition assay with GM-cy3B; type: binding; conditions: FP competition with GM-cy3B, SKBr3 lysate, 4° C. for 24 h; read-out: IC50 (nM), binding affinity for Hsp90 from SKBr3 cellular extracts
From the text: The attachment of small molecules to a solid support is a very useful method to probe their target and the target's interacting partners. […] Perhaps the most crucial aspects in designing such chemical probes are determining the appropriate site for attachment of the small molecule ligand, and designing an appropriate linker between the molecule and the solid support. Our strategy to design Hsp90 chemical probes entails several steps. First, in order to validate the optimal linker length and its site of attachment to the Hsp90 ligand, the linker-modified ligand was docked onto an appropriate X-ray crystal structure of Hsp90α. Second, the linker-modified ligand was evaluated in a fluorescent polarization (FP) assay that measures competitive binding to Hsp90 derived from a cancer cell extract. […] These steps are important to ensure that the solid-support immobilized molecules maintain a strong affinity for Hsp90. Finally, the linker-modified small molecule was attached to the solid support, and its interaction with Hsp90 was validated by incubation with an Hsp90-containing cell extract.
Briefly, FP measurements were performed on an Analyst GT instrument (Molecular Devices, Sunnyvale, Calif.). […] Drugs were added in triplicate wells. […] The assay plate was incubated on a shaker at 4° C. for 24 h and the FP values in mP were measured. The fraction of tracer bound to Hsp90 was correlated to the mP value and plotted against values of competitor concentrations. […] All experimental data were analyzed using SOFTmax Pro 4.3.1 and plotted using Prism 4.0 (Graphpad Software Inc., San Diego, Calif.).

[10] = molecular target: T1, cell surface Hsp90 in MV4-11 leukemia cells (Homo sapiens, UniProt P07900); assay: Flow cytometry detection of cell surface Hsp90 with PU-H71-biotin; type: cell-based; conditions: MV4-11 cells, 2 h at 37° C., SA-PE staining
T1 construct: specifically detect Hsp90 when expressed on the cell surface; endogenous in cells; host or cells: MV4-11 live cells
From the text: FIGS. 29a and 29b. A) Hsp90-containing protein complexes from the brains of JNPL3 mice, an Alzheimer's disease transgenic mouse model, isolated through chemical precipitation with beads containing a streptavidin-immobilized PU-H71-biotin construct or control streptavidin-immobilized D-biotin. Aberrant tau species are indicated by arrow. c1, c2 and s1, s2, cortical and subcortical brain homogenates, respectively, extracted from 6-month-old female JNPL3 mice (Right). Western blot analysis of brain lysate protein content (Left). B) Cell surface Hsp90 in MV4-11 leukemia cells as detected by PU-H71-biotin. The data are consistent with those obtained from multiple repeat experiments (n 2′: 2).
Cells were then analyzed using the BD-LSRII flow cytometer. Mean fluorescence intensity (MFI) was used to calculate the binding of PU-H71-biotin to cells and values were normalized to the MFI of untreated cells stained with SA-PE.

[11] = tested on: DLBCL patients; conditions: Phase II; cited from earlier work
[12] = tested on: K562 CML cells; assay: Drug combination with PU-H71 in CML cells; type: cell-based
From the text: Since single agent therapy is not likely to be curative in cancer, it is necessary to design rational combinatorial therapy approaches. Proteomic identification of oncogenic Hsp90-scaffolded signaling networks may identify additional oncoproteins that could be further targeted using specific small molecule inhibitors.

Q: With `Nc1ccn([C@@H]2O[C@H](CO)[C@@H](O)C2(F)F)c(=O)n1` [gemcitabine] as the compound, how does the median survival [1] read?
A: Its median survival is “approximately 6 months”.

Q: Which “effect on DLBCL cell lines” value [2] does the source give for `COc1cc(Nc2ncc(F)c(Nc3ccc4c(n3)NC(=O)C(C)(C)O4)n2)cc(OC)c1OC` [Compound R406] here?
A: Its value is “blocks proliferation and induces apoptosis”.

Q: What about the “efficacy of combination with PU-H71 versus each inhibitor alone” value [3] of the same compound?
A: The value was “synergizes; also recorded: more efficacious”.

Q: Which results are given for `O=C(c1cc(Cc2n[nH]c(=O)c3ccccc23)ccc1F)N1CCN(C(=O)C2CC2)CC1` [olaparib]?
A: drug interaction with PU-H71 in inhibiting clonogenic survival [4]: synergizes; drug interaction with PU-H71 in inhibiting clonogenic survival [5]: synergizes

Q: Which “effect on cell growth” value [6] does the source give for `CC(C)n1nc(-c2cc3cc(O)ccc3[nH]2)c2c(N)ncnc21` [PP242] here?
A: The value was “toxic to both cells”.

Q: What about the “effect on cell growth” value [7] of the same compound?
A: The value was “toxic to both cells”.

Q: With `Cc1ccc(NC(=O)c2ccc(CN3CCN(C)CC3)cc2)cc1Nc1nccc(-c2cccnc2)n1` [Gleevec] as the compound, how does the “effect on cell growth” value [6] read?
A: Its value is “toxic only to K562 cells”.

Q: What about the “effect on cell growth” value [7] of the same compound?
A: Its value is “toxic only to K562 cells”.

Q: And the “STAT5 phosphorylation (p-STAT5 levels)” value [8]?
A: The value was “rapidly decreased”.

Q: Which results are given for `Nc1ncnc2c1nc(Sc1cc3c(cc1I)OCO3)n2CCCNCCOCCOCCOCCNC(=O)CCCC[C@@H]1SC[C@@H]2NC(=O)N[C@@H]21` [Compound 7]?
A: IC50 [9]: 67.1 nM; detection of Hsp90 on the cell surface [10]: can detect Hsp90 expression on the surface of leukemia cells

Q: For `CO[C@H]1C[C@@H]2CC[C@@H](C)[C@@](O)(O2)C(=O)C(=O)N2CCCC[C@H]2C(=O)O[C@H]([C@H](C)C[C@@H]2CC[C@@H](OCCO)[C@H](OC)C2)CC(=O)[C@H](C)/C=C(\C)[C@@H](O)[C@@H](OC)C(=O)[C@H](C)C[C@H](C)/C=C/C=C/C=C/1C` [everolimus], which ORR [11] is on record?
A: Its ORR is 35%.

Q: For `COc1ccc(S(=O)(=O)N(CCO)c2ccccc2CN(C)C/C=C/c2ccc(Cl)cc2)cc1` [KN93], which “drug interaction with Hsp90 inhibitor PU-H71” value [12] is on record?
A: Its value is “synergize”.
